Assay results from PMC2896895 (Cell cycle (Georgetown, Tex.), 2009).

Assays:
LNCaP cells = test: Colony formation assay, LNCaP; assay type: cell-based, human
[1] = tested on: Prostate Specific Antigen (PSA) expression in C4-2 cells; test: PSA secretion by C4-2 cells; assay type: cell-based, human; settings: 10μM of compounds, 72h, PSA in medium vs 0.1% DMSO
C4-2 cells = test: Colony formation assay, C4-2; assay type: cell-based, human
[2] = tested on: AR-dependent luciferase reporter (ARE-Luc) in CWR22R cells; test: AR-dependent luciferase reporter; assay type: cell-based, human; settings: 10μM of compounds, 24h, vs 0.1% DMSO
CWR22R cells = test: Colony formation / growth assay, CWR22R; assay type: cell-based, human
PSA levels = settings: Phase I clinical trial, castration resistant PCa; cited from earlier work
AR LBD = settings: non-competitive antagonists; cited from earlier work
[3] = number of colonies, vs 0.1% DMSO

CC(O)(CS(=O)(=O)c1ccc(F)cc1)C(=O)Nc1ccc(C#N)c(C(F)(F)F)c1 (stereo not shown) [Bic, bicalutamide]
growth of androgen-sensitive LNCaP cells (LNCaP cells; colony formation, 10μM): suppressed growth
Survival of cells in the presence of 10μM of a compound (DMSO=100%), LNCaP (LNCaP cells; [3]): 19%
PSA secretion in C4-2 cells [1]: 0 % of DMSO
growth of androgen-independent C4-2 cells (C4-2 cells; colony formation, 10μM): did not suppress growth
Survival of cells in the presence of 10μM of a compound (DMSO=100%), C4-2 (C4-2 cells; [3]): 91%
Activity of ARE-Luc in CWR22R11 cells [2]: 43 % of DMSO
growth of androgen-independent CWR22R cells (CWR22R cells; colony formation, 10μM): did not suppress growth
Survival of cells in the presence of 10μM of a compound (DMSO=100%), CWR22R (CWR22R cells; [3]): 100%

CNC(=O)c1ccc(N2C(=S)N(c3ccc(C#N)c(C(F)(F)F)c3)C(=O)C2(C)C)cc1F [MDV3100]
PSA levels in patients (PSA levels): efficacy in decreasing PSA levels

CNC(=O)c1ccc(N2C(=S)N(c3ccc(C#N)c(C(F)(F)F)c3)C(=O)C23CCC3)cc1F [RD162]
binding to the AR LBD (AR LBD): bind with high affinity
